Assay results reported in US8034811B2, “Hydroxamic acid esters and pharmaceutical use thereof” (Leo Pharma A/S, priority 2003, dated 2011).

These compounds were tested against T1, human intracellular domain of KDR (VEGF Receptor-2) (Homo sapiens, UniProt P35968) (assay: In vitro KDR kinase assay). Details: IC50 as molar concentration; GST-KDR-cyt, substrate phospholipase Cγ, ATP 100 μM, 30 min room temperature, time-resolved fluorometry.
T1 construct: A fusion protein containing the intracellular domain (amino acids 793 to 1357) of the KDR and N-terminally tagged to GST; made in house; host or cells: Sf9 insect cells (baculovirus, pDEST20) for GST-KDR-cyt; E. coli BL21 (pGEX-4T-1) for GST-PLCγ
T1 sequence (P35968 794-1356 limits assumed): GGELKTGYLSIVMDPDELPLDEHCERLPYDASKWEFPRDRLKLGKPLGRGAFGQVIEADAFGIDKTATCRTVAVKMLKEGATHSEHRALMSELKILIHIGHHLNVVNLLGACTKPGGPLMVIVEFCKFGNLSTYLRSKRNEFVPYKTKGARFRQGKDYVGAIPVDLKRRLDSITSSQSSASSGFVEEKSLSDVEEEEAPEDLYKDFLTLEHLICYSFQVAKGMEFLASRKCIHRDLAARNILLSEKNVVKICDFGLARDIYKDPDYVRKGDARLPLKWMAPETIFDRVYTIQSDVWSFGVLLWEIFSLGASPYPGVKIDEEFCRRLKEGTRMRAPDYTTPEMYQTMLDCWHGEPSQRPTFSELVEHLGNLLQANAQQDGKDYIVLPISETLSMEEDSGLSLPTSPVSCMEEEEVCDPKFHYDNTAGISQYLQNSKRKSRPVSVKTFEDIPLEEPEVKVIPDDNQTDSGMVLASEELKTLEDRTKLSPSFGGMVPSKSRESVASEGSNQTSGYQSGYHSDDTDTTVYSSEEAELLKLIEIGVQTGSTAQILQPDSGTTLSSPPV
Format: biochemical
Experimental: The intracellular domain of the KDR receptor was used in the in vitro KDR assay. This domain contains the tyrosine kinase domain of KDR, and when expressed in Sf9 cells, this domain is constitutively active i.e. the kinase domain is phosphorylated on tyrosine residues.
The compounds to be tested were dissolved in DMSO at 10 mM, stored at −20° C. and protected from light. The maximum concentration of DMSO in the in vitro assay was 0.1%. Control samples received the same concentration of solvent as the samples treated with the test compounds.
For the kinase assays, black 96 wells MaxiSorp microtiter plates were coated by an overnight incubation with 100 μl/well of a 2.5 μg/ml solution of phospholipase Cγ in TBS buffer (40 mM Tris-HCl, pH 7.4, 20 mM Mg(C2H3O2)2, 0.02% NaN3) at 4° C. The plates were washed 3 times with TBS buffer containing 0.1% Tween-20, and the residual binding sites were masked by incubation with 1% BSA in TBS buffer containing 0.1% Tween-20 for 1 h. The plates were washed again and the test compounds were added at final concentrations up to 10 μM, together with ATP at the final concentration of 100 μM in 50 μl TBS buffer/well. Then, 50 μl of the human intracellular domain of KDR (VEGF Receptor-2) finally diluted 3000-3500 fold were added and were incubated for 30 min at room temperature. The plates were washed and 100 μl of the Europium labelled PY-20 anti-phosphotyrosine antibody (Wallac, FIN) were incubated in each well at the concentration of approximately 114 ng/ml for 2 h. Then, the plates were washed and 100 μl of enhancer solution (Wallac, FIN) were incubated in each well for 5 min in the dark. The plates were read in a Victor 1420 multilabel counter, using a Europium protocol for time-resolved fluorometry (Wallac, FIN): excitation 340 nm, emission 615 nm, sample pulse cycle 400 μs. Fluorescence was measured for 400 μs between flashes after a delay time of 400 μs. The background measured in the absence of enzyme was subtracted from all samples. The molar concentrations that inhibited 50% of the maximal enzymatic activity (IC50) were calculated from the dose-response curve, by fitting a straight line between the two concentrations immediately above and below the 50% inhibition point (i.e. by solving the equation y=a+bx).

IC50	SMILES
100 nM	COC(=O)c1cccc(CONC(=O)c2ccccc2NCc2ccncc2)c1 [Compound 87, 3-{2-[(Pyridin-4-ylmethyl)-amino]-benzoylaminooxymethyl}-benzoic acid methyl ester]
79.4 nM	COc1ccc(CNc2ccccc2C(=O)NOCc2ccc(C#N)cc2)cn1 [compound 237]
39.8 nM	CO[C@@H]1CCC[C@H](CONC(=O)c2ccccc2NCc2ccncc2)C1 (stereo in doubt) [Compound 131, N-(3-Methoxy-cyclohexylmethoxy)-2-[(pyridin-4-ylmethyl)-amino]-benzamide]
5.01 nM	O=C(NOCC1CCCC1)c1ccccc1NCc1ccnc(NC(=O)C2CC2)c1 [compound 227]
7.94 nM	O=C(NOCC1CCCC1)c1cccnc1NCc1ccncc1 [Compound 164, N-Cyclopentylmethoxy-2-[(pyridin-4-ylmethyl)-amino]-nicotinamide]
25.1 nM	O=C(NOCc1cccc(F)c1)c1ccccc1NCc1ccncc1 [Compound 21, N-(3-Fluoro-benzyloxy)-2-[(pyridin-4-ylmethyl)-amino]-benzamide]
50.1 nM	O=C(NOCc1cccc(Cl)c1F)c1ccccc1NCc1ccncc1 [Compound 25, N-(3-Chloro-2-fluoro-benzyloxy)-2-[(pyridin-4-ylmethyl)-amino]-benzamide]
126 nM	O=C(NOCCCc1ccccc1)c1ccccc1NCc1ccncc1 [Compound 31, N-(3-Phenyl-propoxy)-2-[(pyridin-4-ylmethyl)-amino]-benzamide]
7.94 nM	CNC(=O)Nc1cc(CNc2ccccc2C(=O)NOCC2CCCCO2)ccn1 (centres unmarked) [compound 245]
100 nM	O=C(NOCc1ccc2ccccc2n1)c1ccccc1NCc1ccncc1 [Compound 28, 2-[(Pyridin-4-ylmethyl)-amino]-N-(quinolin-2-ylmethoxy)-benzamide]
126 nM	O=C(NOc1ccccc1)c1ccccc1NCc1ccncc1 [Compound 29, N-Phenoxy-2-[(pyridin-4-ylmethyl)-amino]-benzamide]
50.1 nM	COc1ccccc1CONC(=O)c1ccccc1NCc1ccncc1 [Compound 64, N-(2-Methoxy-benzyloxy)-2-[(pyridin-4-ylmethyl)-amino]-benzamide]
50.1 nM	O=C(NOCc1ccc(Cl)cc1)c1ccccc1NCc1ccncc1 [Compound 10, N-(4-Chloro-benzyloxy)-2-[(pyridin-4-ylmethyl)-amino]-benzamide]
50.1 nM	O=C(NOCC1CCOCC1)c1ccccc1NCc1ccncc1 [Compound 141, 2-[(Pyridin-4-ylmethyl)-amino]-N-(tetrahydro-pyran-4-ylmethoxy)-benzamide]
39.8 nM	O=C(NOCCC1CC1)c1ccccc1NCc1ccncc1 [Compound 125, N-(2-Cyclopropyl-ethoxy)-2-[(pyridin-4-ylmethyl)-amino]-benzamide]
79.4 nM	CN(C)CCNC(=O)c1cccc(CONC(=O)c2ccccc2NCc2ccncc2)c1 [Compound 96, N-[3-(2-dimethylaminoethylcarbamoyl)-benzyloxy]-2-[(pyridin-4-ylmethyl)-amino]-benzamide]
200 nM	O=C(NOCc1cccc(C(F)(F)F)c1)c1ccccc1NCc1ccncc1 [Compound 4, 2-[(Pyridin-4-ylmethyl)-amino]-N-(3-trifluoromethyl-benzyloxy)-benzamide]
100 nM	COc1cc(CONC(=O)c2ccccc2NCc2ccncc2)cc(OC)c1OC [Compound 9, 2-[(pyridin-4-ylmethyl)-amino]-N-(3,4,5-trimethoxy-benzyloxy)-benzamide]
6.31 nM	N#Cc1ccc(CONC(=O)c2ccccc2NCc2ccnc(NC(=O)C3CC3)c2)cc1 [compound 226]
63.1 nM	N#Cc1ccc(CONC(=O)c2cccnc2NCc2ccncc2)cc1 [Compound 156, N-(4-Cyano-benzyloxy)-2-[(pyridin-4-ylmethyl)-amino]-nicotinamide]
6.31 nM	COc1cc(F)ccc1CONC(=O)c1ccccc1NCc1ccncc1 [Compound 39, N-(4-Fluoro-2-methoxy-benzyloxy)-2-[(pyridin-4-ylmethyl)-amino]-benzamide]
79.4 nM	O=C(NOCc1ccccc1)c1ccccc1NCc1ccncc1 [Compound 1, N-Benzyloxy-2-[(pyridin-4-ylmethyl)-amino]-benzamide]

IC50	SMILES
25.1 nM	O=C(NOCc1c(F)cccc1Cl)c1ccccc1NCc1ccncc1 [Compound 23, N-(2-Chloro-6-fluoro-benzyloxy)-2-[(pyridin-4-ylmethyl)-amino]-benzamide]
15.8 nM	O=C(NOCc1ccc2c(c1)CCC2)c1ccccc1NCc1ccncc1 [Compound 73, N-(Indan-5-ylmethoxy)-2-[(pyridin-4-ylmethyl)-amino]-benzamide]
15.8 nM	O=C(NOCc1ccccc1Cl)c1ccccc1NCc1ccncc1 [Compound 12, N-(2-Chloro-benzyloxy)-2-[(pyridin-4-ylmethyl)-amino]-benzamide]
100 nM	O=C(NOCC12CC3CC(CC(C3)C1)C2)c1ccccc1NCc1ccncc1 [Compound 132, N-(Adamantan-1-ylmethoxy)-2-[(pyridin-4-ylmethyl)-amino]-benzamide]
6.31 nM	O=C(CC1NC(=O)NC1=O)Nc1cc(CNc2ccccc2C(=O)NOCC2CCCC2)ccn1 (centres unmarked) [compound 228]
50.1 nM	N#Cc1ccc(CONC(=O)c2ccccc2NCc2ccc(=O)[nH]c2)cc1 [compound 247]
7.94 nM	N#Cc1ccc(CONC(=O)c2ccccc2NCc2ccnc(NC(=O)NCCO)c2)cc1 [compound 220]
63.1 nM	O=C(NOCc1ccc(CO)cc1)c1ccccc1NCc1ccncc1 [Compound 58, N-(4-Hydroxymethyl-benzyloxy)-2-[(pyridin-4-ylmethyl)-amino]-benzamide]
79.4 nM	COC(=O)c1ccc(CONC(=O)c2ccccc2NCc2ccncc2)cc1 [Compound 26, 4-{2-[(pyridin-4-ylmethyl)-amino]-benzoylaminooxymethyl}-benzoic acid methyl ester]
63.1 nM	N#Cc1cccc(CONC(=O)c2ccccc2NCc2ccncc2)c1 [Compound 74, N-(3-Cyano-benzyloxy)-2-[(pyridin-4-ylmethyl)-amino]-benzamide]
79.4 nM	O=C(NOCC1CCCO1)c1ccccc1NCc1ccncc1 (centres unmarked) [Compound 135, 2-[(Pyridin-4-ylmethyl)-amino]-N-(tetrahydro-furan-2-ylmethoxy)-benzamide]
63.1 nM	O=C(NOCc1ccccc1C#CCO)c1ccccc1NCc1ccncc1 [Compound 52, N-[2-(3-Hydroxy-prop-1-ynyl)-benzyloxy]-2-[(pyridin-4-ylmethyl)-amino]-benzamide]
39.8 nM	O=C(NOCc1ccc2c(c1)OCO2)c1ccccc1NCc1ccncc1 [Compound 72, N-(Benzo[1,3]-dioxol-5-ylmethoxy)-2-[(pyridin-4-ylmethyl)-amino]-benzamide]
50.1 nM	O=C(NOCc1cccc(OC(F)(F)F)c1)c1ccccc1NCc1ccncc1 [Compound 67, 2-[(Pyridin-4-ylmethyl)-amino]-N-(3-trifluoromethoxy-benzyloxy)-benzamide]
10 nM	O=C(NOCC1CCCC1)c1ccccc1NCc1ccnc2ccccc12 [compound 233]
31.6 nM	CC(ONC(=O)c1ccccc1NCc1ccncc1)C1CCCC1 (centres unmarked) [Compound 123, N-(1-Cyclopentyl-ethoxy)-2-[(pyridin-4-ylmethyl)-amino]-benzamide]
39.8 nM	N#Cc1ccc(CONC(=O)c2ccccc2NCc2ccnc3ccccc23)cc1 [compound 231]
50.1 nM	N#CCc1ccccc1CONC(=O)c1ccccc1NCc1ccncc1 [Compound 56, N-(2-Cyanomethyl-benzyloxy)-2-[(pyridin-4-ylmethyl)-amino]-benzamide]
39.8 nM	N#Cc1ccc(CONC(=O)c2ccccc2NCc2ccncc2)cc1Br [Compound 77, N-(3-Bromo-4-cyano-benzyloxy)-2-[(pyridin-4-ylmethyl)-amino]-benzamide]
79.4 nM	COc1ccc(CNc2ccccc2C(=O)NOCc2ccccc2)cn1 [compound 236]
31.6 nM	O=C(NOCc1ccc(F)cc1C(F)(F)F)c1ccccc1NCc1ccncc1 [Compound 59, N-(4-Fluoro-2-trifluoromethyl-benzyloxy)-2-[(pyridin-4-ylmethyl)-amino]-benzamide]

SMILES	IC50
CCC(CC)CONC(=O)c1ccccc1NCc1ccncc1 [Compound 117, N-(2-Ethyl-butoxy)-2-[(pyridin-4-ylmethyl)-amino]-benzamide]	12.6 nM
